Test results published in EP1247803A2, “Indolinone compounds suitable for modulation of protein kinases” (Sugen, Inc., priority 1996, dated 1998).

molecular target: T1, FLK-1 receptor (Mus musculus, UniProt P35918); test: FLK-1 ELISA (kinase activity of the FLK-1 receptor in FLK-1/NIH3T3 cells, VEGF stimulated); type: cell-based
T1 construct: expressed in transfected cells; host or cells: NIH3T3 C7#3
How it was run: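 FLK-1-expressing NIH3T3 C7#3 cells, starved overnight in 0.1% FBS medium, were treated with compounds at a 1:200 final dilution (0.5% DMSO) for 2 h at 37 °C, with VEGF stimulation. FLK-1 kinase activity was read by ELISA on anti-rabbit IgG plates using affinity-purified anti-FLK-1 antiserum.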

T1 sequence (P35918 20-1345): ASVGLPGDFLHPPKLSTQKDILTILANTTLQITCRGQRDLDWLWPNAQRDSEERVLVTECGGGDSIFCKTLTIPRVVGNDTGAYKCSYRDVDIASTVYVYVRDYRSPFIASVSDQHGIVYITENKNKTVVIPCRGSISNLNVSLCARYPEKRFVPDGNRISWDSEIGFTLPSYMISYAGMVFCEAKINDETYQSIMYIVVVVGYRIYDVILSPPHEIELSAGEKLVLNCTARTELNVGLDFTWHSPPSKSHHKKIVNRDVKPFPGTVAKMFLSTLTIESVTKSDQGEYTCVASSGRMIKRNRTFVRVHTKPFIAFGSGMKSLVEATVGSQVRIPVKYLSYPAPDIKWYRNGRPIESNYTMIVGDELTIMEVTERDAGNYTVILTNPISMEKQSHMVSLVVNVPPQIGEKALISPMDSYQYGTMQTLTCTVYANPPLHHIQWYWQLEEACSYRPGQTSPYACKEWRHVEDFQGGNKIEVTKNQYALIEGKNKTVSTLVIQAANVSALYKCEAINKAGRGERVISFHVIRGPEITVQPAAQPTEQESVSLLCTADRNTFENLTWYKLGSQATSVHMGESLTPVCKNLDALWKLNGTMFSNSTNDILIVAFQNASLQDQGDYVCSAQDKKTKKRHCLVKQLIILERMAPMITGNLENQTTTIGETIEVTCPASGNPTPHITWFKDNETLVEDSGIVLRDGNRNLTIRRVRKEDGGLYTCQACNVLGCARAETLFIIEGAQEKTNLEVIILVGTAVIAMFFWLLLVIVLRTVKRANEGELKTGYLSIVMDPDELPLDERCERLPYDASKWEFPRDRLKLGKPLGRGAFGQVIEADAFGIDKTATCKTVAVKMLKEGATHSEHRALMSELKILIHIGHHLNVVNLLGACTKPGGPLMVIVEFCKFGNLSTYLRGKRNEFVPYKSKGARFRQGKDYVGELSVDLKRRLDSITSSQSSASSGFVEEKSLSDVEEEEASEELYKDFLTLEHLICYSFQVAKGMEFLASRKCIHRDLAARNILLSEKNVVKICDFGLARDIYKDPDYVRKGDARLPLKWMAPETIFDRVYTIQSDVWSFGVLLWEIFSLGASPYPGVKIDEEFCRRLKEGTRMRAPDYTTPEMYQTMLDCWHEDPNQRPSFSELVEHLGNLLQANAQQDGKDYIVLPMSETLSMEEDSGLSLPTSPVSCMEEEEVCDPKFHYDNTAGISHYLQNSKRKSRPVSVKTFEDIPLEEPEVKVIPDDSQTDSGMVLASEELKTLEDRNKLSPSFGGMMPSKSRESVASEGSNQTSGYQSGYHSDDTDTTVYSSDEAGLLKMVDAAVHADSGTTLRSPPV

SMILES | Fik Kinase %Inhibition
Cc1ccc(C=C2C(=O)Nc3ccc(I)cc32)s1 [10717/B07] | -18.3%
O=C1Nc2ccc(I)cc2C1=Cc1ccc(Br)cc1 [10717/B08] | -0.9%
O=C1Nc2ccc(I)cc2C1=Cc1ccc[nH]1 [10717/B09] | -40.7%
COc1cccc(O)c1C=C1C(=O)Nc2ccc(I)cc21 [10717/B10] | -2.3%
Cc1[nH]c(C=C2C(=O)Nc3ccc(I)cc32)c(Br)c1Br [10717/B11] | 11.4%
CCOc1ccccc1C=C1C(=O)Nc2ccc(Br)c(C)c21 [10717/C02] | 4.1%
Cc1c(Br)ccc2c1C(=Cc1cccs1)C(=O)N2 [10717/C03] | -7.7%
Cc1c(Br)ccc2c1C(=Cc1cccc([N+](=O)[O-])c1)C(=O)N2 [10719/C10] | 11.8%
Cc1c(Br)ccc2c1C(=Cc1ccc(F)cc1C(F)(F)F)C(=O)N2 [10719/C11] | 9.9%
CCOc1ccc(C=C2C(=O)Nc3ccc(S(=O)(=O)NC)cc32)cc1OC [10719/D02] | 9.7%
CNS(=O)(=O)c1ccc2c(c1)C(=Cc1ccc(O)c(O)c1)C(=O)N2 [10719/D03] | 4.8%
CNS(=O)(=O)c1ccc2c(c1)C(=Cc1ccc(OC)cc1OC)C(=O)N2 [10719/D04] | 27.8%
CCc1c(C)[nH]c(C=C2C(=O)Nc3ccc(S(=O)(=O)NC)cc32)c1C [10719/D05] | 16.3%
CNS(=O)(=O)c1ccc2c(c1)C(=Cc1c(OC)cc(OC)cc1OC)C(=O)N2 [10719/D06] | 25.8%
CNS(=O)(=O)c1ccc2c(c1)C(=Cc1ccc(O)cc1)C(=O)N2 [10719/D07] | -123.5%
CNS(=O)(=O)c1ccc2c(c1)C(=Cc1ccc(N(C)C)cc1)C(=O)N2 [10719/D08] | 8.2%
CNS(=O)(=O)c1ccc2c(c1)C(=Cc1ccc(F)cc1Cl)C(=O)N2 [10719/D09] | 7.8%
CNS(=O)(=O)c1ccc2c(c1)C(=Cc1cccc([N+](=O)[O-])c1)C(=O)N2 [10719/D10] | 8.3%
CCOc1ccc(C=C2C(=O)Nc3ccc(S(=O)(=O)Nc4ccc(C(F)(F)F)cc4)cc32)cc1OC [10719/E02] | 26.1%
O=C1Nc2ccc(S(=O)(=O)Nc3ccc(C(F)(F)F)cc3)cc2C1=Cc1ccc(O)c(O)c1 [10719/E03] | 17.1%
COc1ccc(C=C2C(=O)Nc3ccc(S(=O)(=O)Nc4ccc(C(F)(F)F)cc4)cc32)c(OC)c1 [10719/E04] | 31.2%
CCc1c(C)[nH]c(C=C2C(=O)Nc3ccc(S(=O)(=O)Nc4ccc(C(F)(F)F)cc4)cc32)c1C [10719/E05] | 21.5%
COc1cc(OC)c(C=C2C(=O)Nc3ccc(S(=O)(=O)Nc4ccc(C(F)(F)F)cc4)cc32)c(OC)c1 [10719/E06] | 17.1%
O=C1Nc2ccc(S(=O)(=O)Nc3ccc(C(F)(F)F)cc3)cc2C1=Cc1ccc(O)cc1 [10719/E07] | 26.7%
CN(C)c1ccc(C=C2C(=O)Nc3ccc(S(=O)(=O)Nc4ccc(C(F)(F)F)cc4)cc32)cc1 [10719/E08] | 21.8%
O=C1Nc2ccc(S(=O)(=O)Nc3ccc(C(F)(F)F)cc3)cc2C1=Cc1ccc(F)cc1Cl [10719/E09] | 13.5%
O=C1Nc2ccc(S(=O)(=O)Nc3ccc(C(F)(F)F)cc3)cc2C1=Cc1cccc([N+](=O)[O-])c1 [10719/E10] | 17.6%

SMILES | Fik Kinase %Inhibition
O=C1Nc2ccc(S(=O)(=O)Nc3ccc(C(F)(F)F)cc3)cc2C1=Cc1ccc(F)cc1C(F)(F)F [10719/E11] | 26.3%
CCOc1ccc(C=C2C(=O)Nc3ccc(S(=O)(=O)N4CCOCC4)cc32)cc1OC [10719/F02] | 28.6%
O=C1Nc2ccc(S(=O)(=O)N3CCOCC3)cc2C1=Cc1ccc(O)c(O)c1 [10719/F03] | 11.2%
COc1ccc(C=C2C(=O)Nc3ccc(S(=O)(=O)N4CCOCC4)cc32)c(OC)c1 [10719/F04] | 26.6%
CCc1c(C)[nH]c(C=C2C(=O)Nc3ccc(S(=O)(=O)N4CCOCC4)cc32)c1C [10719/F05] | 20.7%
COc1cc(OC)c(C=C2C(=O)Nc3ccc(S(=O)(=O)N4CCOCC4)cc32)c(OC)c1 [10719/F06] | 13.5%
O=C1Nc2ccc(S(=O)(=O)N3CCOCC3)cc2C1=Cc1ccc(O)cc1 [10719/F07] | 18.7%
CN(C)c1ccc(C=C2C(=O)Nc3ccc(S(=O)(=O)N4CCOCC4)cc32)cc1 [10719/F08] | 15.1%
O=C1Nc2ccc(S(=O)(=O)N3CCOCC3)cc2C1=Cc1ccc(F)cc1Cl [10719/F09] | -6.5%
O=C1Nc2ccc(S(=O)(=O)N3CCOCC3)cc2C1=Cc1cccc([N+](=O)[O-])c1 [10719/F10] | 10.4%
O=C1Nc2ccc(S(=O)(=O)N3CCOCC3)cc2C1=Cc1ccc(F)cc1C(F)(F)F [10719/F11] | 11.6%
CCOc1ccc(C=C2C(=O)Nc3ccc(CCCl)cc32)cc1OC [10719/G02] | 27.3%
O=C1Nc2ccc(CCCl)cc2C1=Cc1ccc(O)c(O)c1 [10719/G03] | -25.8%
COc1ccc(C=C2C(=O)Nc3ccc(CCCl)cc32)c(OC)c1 [10719/G04] | 11.5%
CCc1c(C)[nH]c(C=C2C(=O)Nc3ccc(CCCl)cc32)c1C [10719/G05] | 18.0%
COc1cc(OC)c(C=C2C(=O)Nc3ccc(CCCl)cc32)c(OC)c1 [10719/G06] | 23.2%
O=C1Nc2ccc(CCCl)cc2C1=Cc1ccc(O)cc1 [10719/G07] | 20.1%
CN(C)c1ccc(C=C2C(=O)Nc3ccc(CCCl)cc32)cc1 [10719/G08] | 3.2%
O=C1Nc2ccc(CCCl)cc2C1=Cc1ccc(F)cc1Cl [10719/G09] | 18.1%
O=C1Nc2ccc(CCCl)cc2C1=Cc1cccc([N+](=O)[O-])c1 [10719/G10] | 9.7%
O=C1Nc2ccc(CCCl)cc2C1=Cc1ccc(F)cc1C(F)(F)F [10719/G11] | 6.9%
O=C1Nc2c(Br)cc(Br)cc2C1=Cc1c(F)cc(F)cc1F [10720/A02] | 4.7%
COc1cc(O)ccc1C=C1C(=O)Nc2c(Br)cc(Br)cc21 [10720/A03] | 17.7%
COc1ccc(C=C2C(=O)Nc3c(Br)cc(Br)cc32)cc1OC [10720/A04] | 12.3%
O=C1Nc2c(Br)cc(Br)cc2C1=Cc1ccccc1O [10720/A05] | 8.0%
O=C1Nc2c(Br)cc(Br)cc2C1=Cc1ccccc1 [10720/A06] | 5.6%
CSc1ccc(C=C2C(=O)Nc3c(Br)cc(Br)cc32)s1 [10720/A07] | 6.6%

SMILES | Fik Kinase %Inhibition
Cc1cc(O)cc(O)c1C=C1C(=O)Nc2c(Br)cc(Br)cc21 [10720/A08] | -2.2%
CCOc1cc(C=C2C(=O)Nc3c(Br)cc(Br)cc32)ccc1O [10720/A09] | 8.1%
COc1ccc(O)c(C=C2C(=O)Nc3c(Br)cc(Br)cc32)c1 [10720/A10] | -5.2%
O=C1Nc2c(Br)cc(Br)cc2C1=Cc1ncc[nH]1 [10720/A11] | -0.6%
O=C1Nc2ccc(I)cc2C1=Cc1c(F)cc(F)cc1F [10720/B02] | 6.5%
COc1cc(O)ccc1C=C1C(=O)Nc2ccc(I)cc21 [10720/B03] | 6.4%
COc1ccc(C=C2C(=O)Nc3ccc(I)cc32)cc1OC [10720/B04] | 9.8%
O=C1Nc2ccc(I)cc2C1=Cc1ccccc1O [10720/B05] | 11.6%
O=C1Nc2ccc(I)cc2C1=Cc1ccccc1 [10720/B06] | 7.3%
CSc1ccc(C=C2C(=O)Nc3ccc(I)cc32)s1 [10720/B07] | 12.0%
Cc1cc(O)cc(O)c1C=C1C(=O)Nc2ccc(I)cc21 [10720/B08] | 3.6%
CCOc1cc(C=C2C(=O)Nc3ccc(I)cc32)ccc1O [10720/B09] | 10.1%
COc1ccc(O)c(C=C2C(=O)Nc3ccc(I)cc32)c1 [10720/B10] | -5.5%
O=C1Nc2ccc(I)cc2C1=Cc1ncc[nH]1 [10720/B11] | -20.3%
Cc1c(Br)ccc2c1C(=Cc1c(F)cc(F)cc1F)C(=O)N2 [10720/C02] | 18.0%
COc1cc(O)ccc1C=C1C(=O)Nc2ccc(Br)c(C)c21 [10720/C03] | 15.1%
COc1ccc(C=C2C(=O)Nc3ccc(Br)c(C)c32)cc1OC [10720/C04] | 15.3%
Cc1c(Br)ccc2c1C(=Cc1ccccc1O)C(=O)N2 [10720/C05] | -36.1%
Cc1c(Br)ccc2c1C(=Cc1ccccc1)C(=O)N2 [10720/C06] | 12.2%
CSc1ccc(C=C2C(=O)Nc3ccc(Br)c(C)c32)s1 [10720/C07] | 20.7%
Cc1cc(O)cc(O)c1C=C1C(=O)Nc2ccc(Br)c(C)c21 [10720/C08] | 10.9%
CCOc1cc(C=C2C(=O)Nc3ccc(Br)c(C)c32)ccc1O [10720/C09] | 12.1%
COc1ccc(O)c(C=C2C(=O)Nc3ccc(Br)c(C)c32)c1 [10720/C10] | -21.1%
Cc1c(Br)ccc2c1C(=Cc1ncc[nH]1)C(=O)N2 [10720/C11] | 52.5%
CNS(=O)(=O)c1ccc2c(c1)C(=Cc1c(F)cc(F)cc1F)C(=O)N2 [10720/D02] | 12.1%
CNS(=O)(=O)c1ccc2c(c1)C(=Cc1ccc(O)cc1OC)C(=O)N2 [10720/D03] | 17.0%
